Data set [1] in a line: Foam measurement (Dynamic Foam Analyser, Kruss). It is filed as physicochemical. The settings on record: 50 ml of 1.5 wt % solution, stirred at 3,000 rpm for 2 minutes. Here is the method:
Foaming was evaluated using a Dynamic Foam Analyser from Kruss. A volume of 50 ml of 1.5 wt % alkyl polyglucoside solution was added to the cylinder. […] PEG-80 sorbitan laurate and cocamidopropyl betaine were used as surfactant controls.

Data set [2] can be described thus: Essential oils solubility. The settings on record: 7 wt % solubilizer in water, room temperature, after 5 hours. It is filed as physicochemical. As to the method:
13 wt % solution of alkyl polyglucoside in distilled water was prepared and separately mixed with lemon oil, lavender oil, tea tree oil and patchouli oil at a ratio of 1:7 (w/w), and then the mixtures were added dropwise under stirring to water to a final concentration of 1 wt % essential oil and 7 wt % alkyl polyglucoside. […] The mixtures were then left at room temperature for 5 hours and observed for phase separation. Lauryl glucoside was used as a surfactant control with both lemon oil and lavender oil.

Turning to cocamidopropyl betaine, the Foam height in data set [1] turned out to be 78 mm.
As for lauryl glucoside, the “Essential oils solubility: lavender oil mixture appearance / phase separation” value in data set [2] (1 wt % lavender oil) is “white and cloudy, and had phase separated”. In addition, the “Essential oils solubility: lemon oil mixture appearance / phase separation” value in data set [2] (1 wt % lemon oil) was “white and cloudy, and had phase separated”.

These data come from US20230227878A1, “PROCESS FOR PREPARING SURFACTANT” (Enza Biotech AB, priority 2020, published 2023).
